ChEMBL document CHEMBL1201862, “PubChem BioAssay data set” (2004)
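Dose response: 5 concentrations. Exposure: 48 h. Format: 96-well plates. Endpoint: linear interpolation; highest concentration if not reached. GI50: concentration for 50% inhibition of growth.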 Calls of active or inactive are those of the source. No stated cut-off is given here; in the data, active = GI50 up to about 1.1 µM and inactive = higher.

Key:
Experiment in all cases: NCI-60 cell line screen, 48 h
[1] = test system: XF498
[2] = test system: DMS-273
[3] = test system: SNB-78
[4] = test system: HOP-18
[5] = test system: M19-MEL
[6] = test system: DLD-1
[7] = test system: KM-20L2
[8] = test system: DMS-114
[9] = test system: RXF 631

| SMILES | GI50 [1] | GI50 [2] | GI50 [3] | GI50 [4] | GI50 [5] | GI50 [6] | GI50 [7] | GI50 [8] | GI50 [9] |
| --- | --- | --- | --- | --- | --- | --- | --- | --- | --- |
| COc1ccc(C2C(Cl)C(=O)N2NC(=O)Cc2ccccc2)cc1 (stereo not drawn) | > 100 µM (inactive) | > 100 µM (inactive) | > 100 µM (inactive) | > 100 µM (inactive) | > 100 µM (inactive) | > 100 µM (inactive) | > 100 µM (inactive) | – | – |
| O=C1C=CC(=O)N1Nc1ccc([N+](=O)[O-])cc1[N+](=O)[O-] | – | > 100 µM (inactive) | > 100 µM (inactive) | – | > 89.7 µM (inactive) | > 100 µM (inactive) | > 100 µM (inactive) | > 100 µM (inactive) | – |
| COc1cc(OC)cc(C(=O)Cc2c(C(=O)c3ccccc3)c3ccccc3n2C(=O)c2ccccc2)c1 | 21.4 µM (inactive) | 27.4 µM (inactive) | 38.3 µM (inactive) | – | 32 µM (inactive) | 20.3 µM (inactive) | 50.6 µM (inactive) | 15.5 µM (inactive) | – |
| COc1cc2c3c(c1OC)-c1c(ccc4c1OCO4)CC3(C#N)N(C(=O)c1ccccc1)CC2 (stereo not drawn) | 23 µM (inactive) | 49.7 µM (inactive) | 66.4 µM (inactive) | – | 67.6 µM (inactive) | 52.2 µM (inactive) | > 100 µM (inactive) | 45.5 µM (inactive) | 49.4 µM (inactive) |
| COc1ccc(CCCN2c3ccccc3Sc3ccccc32)cc1 | > 100 µM (inactive) | 33.5 µM (inactive) | 91.8 µM (inactive) | > 100 µM (inactive) | – | > 100 µM (inactive) | 53.8 µM (inactive) | 28.1 µM (inactive) | – |
| C1CCN(c2nsc(N3CCCCC3)n2)CC1 | – | > 100 µM (inactive) | > 100 µM (inactive) | > 100 µM (inactive) | > 100 µM (inactive) | > 100 µM (inactive) | > 100 µM (inactive) | > 100 µM (inactive) | > 100 µM (inactive) |
| C[N+]1=c2c3cccc4cccc(c(=O)n2CC1)c43 | – | 12.4 µM (inactive) | 14.2 µM (inactive) | 21.6 µM (inactive) | 17.3 µM (inactive) | 16.1 µM (inactive) | 15.7 µM (inactive) | 15.7 µM (inactive) | 24.2 µM (inactive) |
| CCOc1ccc(/N=N/c2c(-c3ccccc3)nn(C(=O)CC(=O)Nc3cccc(C)c3)c2-c2ccccc2)cc1 | 95.1 µM (inactive) | > 100 µM (inactive) | > 100 µM (inactive) | > 100 µM (inactive) | – | 63.2 µM (inactive) | 85.5 µM (inactive) | 30.4 µM (inactive) | 27.5 µM (inactive) |
| CC1=C(C(=O)Nc2ccc([N+](=O)[O-])cc2)C(c2ccco2)C(C(=O)Nc2ccc([N+](=O)[O-])cc2)=C(C)N1 | 0.6 µM (active) | – | 11.9 µM (inactive) | – | 13.1 µM (inactive) | 9.68 µM (inactive) | 17.4 µM (inactive) | 5 µM (inactive) | 35.8 µM (inactive) |
| COc1ccc(/C=C(\Cl)c2ccc(OC)cc2)cc1 | – | > 100 µM (inactive) | – | – | > 100 µM (inactive) | > 100 µM (inactive) | > 100 µM (inactive) | > 100 µM (inactive) | – |
| CC(C(=O)Oc1ccc2ccccc2c1-c1c(O)ccc2ccccc12)c1ccccc1 (stereo not drawn) | 14.2 µM (inactive) | > 10 µM (inactive) | 15.4 µM (inactive) | – | 15.5 µM (inactive) | – | – | 12.3 µM (inactive) | 17.2 µM (inactive) |
| O=C(O)Cc1cc(=O)[nH]c2c1C(=O)CCC2 | > 100 µM (inactive) | > 100 µM (inactive) | – | > 100 µM (inactive) | > 100 µM (inactive) | > 100 µM (inactive) | > 100 µM (inactive) | – | – |
| CC(C)CN(CC(C)C)C(=O)C1CCCC[C@@H]1C(=O)O (stereo partly drawn) | – | > 100 µM (inactive) | > 100 µM (inactive) | > 100 µM (inactive) | > 100 µM (inactive) | > 100 µM (inactive) | > 100 µM (inactive) | > 100 µM (inactive) | > 100 µM (inactive) |
| O=C(O)c1cc(=O)c2c([nH]c3ccccc32)s1 | > 100 µM (inactive) | – | > 100 µM (inactive) | – | > 100 µM (inactive) | > 100 µM (inactive) | > 100 µM (inactive) | > 100 µM (inactive) | > 100 µM (inactive) |
| CC1=C[C@H]2C[C@@]3(C)O[C@@H]([C@]4(C)CC[C@H]([C@@H](C)C(=O)O)OO4)CC3C(C)(C)[C@H]2CC1 (stereo partly drawn) | 0.0573 µM (active) | 0.526 µM (active) | 1.08 µM (active) | – | 1.67 µM (inactive) | 0.916 µM (active) | 2.17 µM (inactive) | 1.56 µM (inactive) | – |
| N#Cc1ccc(C2OCC3CC=CCC3CO2)cc1 (stereo not drawn) | > 100 µM (inactive) | – | > 100 µM (inactive) | > 100 µM (inactive) | 84.7 µM (inactive) | 55 µM (inactive) | > 100 µM (inactive) | 61.7 µM (inactive) | 41.7 µM (inactive) |
| O=C1C2=C(c3ccccc31)C(c1cccc(Cl)c1)NC(S)=N2 (stereo not drawn) | > 100 µM (inactive) | 80.9 µM (inactive) | – | – | > 100 µM (inactive) | > 100 µM (inactive) | > 100 µM (inactive) | > 100 µM (inactive) | – |
| C[P+](C)(C)C | > 100 µM (inactive) | – | > 100 µM (inactive) | > 100 µM (inactive) | > 100 µM (inactive) | > 100 µM (inactive) | > 100 µM (inactive) | > 100 µM (inactive) | > 100 µM (inactive) |
| CC(=O)C1C(=O)NC(=O)C1=O (stereo not drawn) | > 100 µM (inactive) | > 100 µM (inactive) | > 100 µM (inactive) | > 100 µM (inactive) | > 100 µM (inactive) | – | > 100 µM (inactive) | > 100 µM (inactive) | – |
| O=C(COc1ccc(Cl)cc1)N1N=C(c2ccc(Cl)cc2)CC1(O)c1ccccc1 (stereo not drawn) | 27.8 µM (inactive) | 15.9 µM (inactive) | > 38.5 µM (inactive) | 39.2 µM (inactive) | 24 µM (inactive) | 13 µM (inactive) | 15.4 µM (inactive) | 18.4 µM (inactive) | – |
| CC(C)N(C(=O)C1(C)CC1)C(C)C | > 100 µM (inactive) | > 100 µM (inactive) | > 100 µM (inactive) | > 100 µM (inactive) | > 100 µM (inactive) | > 100 µM (inactive) | > 100 µM (inactive) | > 100 µM (inactive) | > 100 µM (inactive) |
| O=C(/C=C/c1cccc([N+](=O)[O-])c1)c1ccc([N+](=O)[O-])cc1 | > 100 µM (inactive) | > 100 µM (inactive) | > 100 µM (inactive) | – | > 100 µM (inactive) | > 100 µM (inactive) | > 100 µM (inactive) | – | > 100 µM (inactive) |
